Data reported in ChEMBL document CHEMBL2346657, “Synthesis of novel 2-amino-4-(5'-substituted 2'-phenyl-1H-indol-3'-yl)-6-aryl-4H-pyran-3-carbonitrile derivatives as antimicrobial and antioxidant agents” (2013).
Calls of active or inactive are those of the source. No rule for the calls is given here.

Key:
Format in all cases: functional
[1] = tested on: Aspergillus flavus; assay: Antimicrobial activity against Aspergillus flavus MTCC 1973 at 750 ug/ml after 72 hrs by cup plate method; conditions: MTCC 1973, 72 h, read-out: IZ
[2] = tested on: Aspergillus oryzae; assay: Antimicrobial activity against Aspergillus oryzae MTCC 3567 at 500 ug/ml after 72 hrs by cup plate method; conditions: MTCC 3567, 72 h, read-out: IZ
[3] = tested on: Klebsiella pneumoniae; assay: Antimicrobial activity against Klebsiella pneumoniae NCTC 13368 at 750 ug/ml after 24 hrs by cup plate method; conditions: NCTC 13368, 24 h, read-out: IZ
[4] = tested on: Aspergillus oryzae; assay: Antimicrobial activity against Aspergillus oryzae MTCC 3567 at 750 ug/ml after 72 hrs by cup plate method; conditions: MTCC 3567, 72 h, read-out: IZ
[5] = tested on: Escherichia coli; assay: Antimicrobial activity against Escherichia coli MTCC 723 at 1000 ug/ml after 24 hrs by cup plate method; conditions: MTCC 723, 24 h, read-out: IZ
[6] = tested on: Aspergillus niger; assay: Antimicrobial activity against Aspergillus niger MTCC 281 at 500 ug/ml after 72 hrs by cup plate method; conditions: MTCC 281, 72 h, read-out: IZ
[7] = tested on: Aspergillus terreus; assay: Antimicrobial activity against Aspergillus terreus MTCC 1782 at 500 ug/ml after 72 hrs by cup plate method; conditions: MTCC 1782, 72 h, read-out: IZ
[8] = tested on: Escherichia coli; assay: Antimicrobial activity against Escherichia coli MTCC 723 at 500 ug/ml after 24 hrs by cup plate method; conditions: MTCC 723, 24 h, read-out: IZ
[9] = tested on: Aspergillus flavus; assay: Antimicrobial activity against Aspergillus flavus MTCC 1973 at 500 ug/ml after 72 hrs by cup plate method; conditions: MTCC 1973, 72 h, read-out: IZ
[10] = tested on: Pseudomonas aeruginosa; assay: Antimicrobial activity against Pseudomonas aeruginosa MTCC 1688 at 1000 ug/ml after 24 hrs by cup plate method; conditions: MTCC 1688, 24 h, read-out: IZ
[11] = tested on: Aspergillus oryzae; assay: Antimicrobial activity against Aspergillus oryzae MTCC 3567 at 1000 ug/ml after 72 hrs by cup plate method; conditions: MTCC 3567, 72 h, read-out: IZ
[12] = tested on: Aspergillus niger; assay: Antimicrobial activity against Aspergillus niger MTCC 281 at 750 ug/ml after 72 hrs by cup plate method; conditions: MTCC 281, 72 h, read-out: IZ
[13] = tested on: Aspergillus terreus; assay: Antimicrobial activity against Aspergillus terreus MTCC 1782 at 1000 ug/ml after 72 hrs by cup plate method; conditions: MTCC 1782, 72 h, read-out: IZ
[14] = Antioxidant activity assessed as metal chelating activity by measuring inhibition of ferrozine-Fe2+ complex formation at 25 to 100 ug/ml
[15] = tested on: Aspergillus niger; assay: Antimicrobial activity against Aspergillus niger MTCC 281 at 1000 ug/ml after 72 hrs by cup plate method; conditions: MTCC 281, 72 h, read-out: IZ
[16] = tested on: Klebsiella pneumoniae; assay: Antimicrobial activity against Klebsiella pneumoniae NCTC 13368 at 500 ug/ml after 24 hrs by cup plate method; conditions: NCTC 13368, 24 h, read-out: IZ
[17] = tested on: Escherichia coli; assay: Antimicrobial activity against Escherichia coli MTCC 723 at 750 ug/ml after 24 hrs by cup plate method; conditions: MTCC 723, 24 h, read-out: IZ
[18] = tested on: Pseudomonas aeruginosa; assay: Antimicrobial activity against Pseudomonas aeruginosa MTCC 1688 at 500 ug/ml after 24 hrs by cup plate method; conditions: MTCC 1688, 24 h, read-out: IZ
[19] = tested on: Staphylococcus aureus; assay: Antimicrobial activity against Staphylococcus aureus ATCC 29513 at 1000 ug/ml after 24 hrs by cup plate method; conditions: ATCC 29513, 24 h, read-out: IZ
[20] = tested on: Staphylococcus aureus; assay: Antimicrobial activity against Staphylococcus aureus ATCC 29513 at 750 ug/ml after 24 hrs by cup plate method; conditions: ATCC 29513, 24 h, read-out: IZ
[21] = tested on: Pseudomonas aeruginosa; assay: Antimicrobial activity against Pseudomonas aeruginosa MTCC 1688 at 750 ug/ml after 24 hrs by cup plate method; conditions: MTCC 1688, 24 h, read-out: IZ
[22] = tested on: Aspergillus flavus; assay: Antimicrobial activity against Aspergillus flavus MTCC 1973 at 1000 ug/ml after 72 hrs by cup plate method; conditions: MTCC 1973, 72 h, read-out: IZ
[23] = tested on: Staphylococcus aureus; assay: Antimicrobial activity against Staphylococcus aureus ATCC 29513 at 500 ug/ml after 24 hrs by cup plate method; conditions: ATCC 29513, 24 h, read-out: IZ
[24] = tested on: Aspergillus terreus; assay: Antimicrobial activity against Aspergillus terreus MTCC 1782 at 750 ug/ml after 72 hrs by cup plate method; conditions: MTCC 1782, 72 h, read-out: IZ
[25] = tested on: Klebsiella pneumoniae; assay: Antimicrobial activity against Klebsiella pneumoniae NCTC 13368 at 1000 ug/ml after 24 hrs by cup plate method; conditions: NCTC 13368, 24 h, read-out: IZ

SMILES	zone of inhibition at 750 µg/mL [1]	zone of inhibition at 500 µg/mL [2]	zone of inhibition at 750 µg/mL [3]	zone of inhibition at 750 µg/mL [4]	zone of inhibition at 1000 µg/mL [5]	zone of inhibition at 500 µg/mL [6]	zone of inhibition at 500 µg/mL [7]	zone of inhibition at 500 µg/mL [8]	zone of inhibition at 500 µg/mL [9]	zone of inhibition at 1000 µg/mL [10]	zone of inhibition at 1000 µg/mL [11]	zone of inhibition at 750 µg/mL [12]	zone of inhibition at 1000 µg/mL [13]	Activity [14]	zone of inhibition at 1000 µg/mL [15]	zone of inhibition at 500 µg/mL [16]	zone of inhibition at 750 µg/mL [17]	zone of inhibition at 500 µg/mL [18]	zone of inhibition at 1000 µg/mL [19]	zone of inhibition at 750 µg/mL [20]	further results
Nc1nc(=S)[nH]c2c1C(c1c(-c3ccccc3)[nH]c3ccc(Cl)cc13)C=C(c1ccccc1)O2 (stereo not given)	8 mm	10 mm	10 mm	10 mm	8 mm	5 mm	9 mm	10 mm	8 mm	5 mm	0 mm	5 mm	8 mm	Active	10 mm	10 mm	8 mm	6 mm	9 mm	9 mm	zone of inhibition at 750 µg/mL [21]: 5 mm; zone of inhibition at 1000 µg/mL [22]: 8 mm; zone of inhibition at 500 µg/mL [23]: 9 mm; zone of inhibition at 750 µg/mL [24]: 8 mm; zone of inhibition at 1000 µg/mL [25]: 10 mm
Cc1ccc(C2=CC(c3c(-c4ccccc4)[nH]c4ccccc34)c3c(nc4oc(=O)c(C#N)c(N)c4c3N)O2)cc1 (stereo not given)	0 mm	6 mm	11 mm	6 mm	8 mm	2 mm	10 mm	9 mm	0 mm	9 mm	6 mm	2 mm	3 mm	Active	8 mm	12 mm	8 mm	5 mm	3 mm	5 mm	zone of inhibition at 750 µg/mL [21]: 5 mm; zone of inhibition at 1000 µg/mL [22]: 0 mm; zone of inhibition at 500 µg/mL [23]: 8 mm; zone of inhibition at 750 µg/mL [24]: 5 mm; zone of inhibition at 1000 µg/mL [25]: 10 mm
Cc1ccc2[nH]c(-c3ccccc3)c(C3C=C(c4ccc(Cl)cc4)OC(N)=C3C#N)c2c1 (stereo not given)	10 mm	10 mm	9 mm	10 mm	10 mm	10 mm	12 mm	10 mm	10 mm	2 mm	10 mm	10 mm	13 mm	Active	10 mm	9 mm	10 mm	6 mm	2 mm	5 mm	zone of inhibition at 750 µg/mL [21]: 5 mm; zone of inhibition at 1000 µg/mL [22]: 8 mm; zone of inhibition at 500 µg/mL [23]: 6 mm; zone of inhibition at 750 µg/mL [24]: 13 mm; zone of inhibition at 1000 µg/mL [25]: 8 mm
Cc1ccc(C2=CC(c3c(-c4ccccc4)[nH]c4ccc(Cl)cc34)c3c(N)nc(=O)[nH]c3O2)cc1 (stereo not given)	12 mm	12 mm	8 mm	13 mm	10 mm	10 mm	8 mm	8 mm	12 mm	8 mm	13 mm	10 mm	8 mm	Active	10 mm	8 mm	8 mm	10 mm	0 mm	0 mm	zone of inhibition at 750 µg/mL [21]: 9 mm; zone of inhibition at 1000 µg/mL [22]: 13 mm; zone of inhibition at 500 µg/mL [23]: 0 mm; zone of inhibition at 750 µg/mL [24]: 8 mm; zone of inhibition at 1000 µg/mL [25]: 8 mm
Nc1nc(=S)[nH]c2c1C(c1c(-c3ccccc3)[nH]c3ccccc13)C=C(c1ccccc1)O2 (stereo not given)	9 mm	9 mm	8 mm	8 mm	11 mm	12 mm	5 mm	10 mm	9 mm	2 mm	8 mm	12 mm	5 mm	Active	14 mm	9 mm	10 mm	2 mm	0 mm	2 mm	zone of inhibition at 750 µg/mL [21]: 2 mm; zone of inhibition at 1000 µg/mL [22]: 9 mm; zone of inhibition at 500 µg/mL [23]: 2 mm; zone of inhibition at 750 µg/mL [24]: 5 mm; zone of inhibition at 1000 µg/mL [25]: 8 mm
Cc1ccc2[nH]c(-c3ccccc3)c(C3C=C(c4ccc(Cl)cc4)Oc4nc5oc(=O)c(C#N)c(N)c5c(N)c43)c2c1 (stereo not given)	5 mm	4 mm	11 mm	3 mm	13 mm	10 mm	10 mm	13 mm	5 mm	10 mm	3 mm	10 mm	8 mm	Active	10 mm	11 mm	13 mm	10 mm	14 mm	13 mm	zone of inhibition at 750 µg/mL [21]: 10 mm; zone of inhibition at 1000 µg/mL [22]: 5 mm; zone of inhibition at 500 µg/mL [23]: 13 mm; zone of inhibition at 750 µg/mL [24]: 9 mm; zone of inhibition at 1000 µg/mL [25]: 9 mm
Cc1ccc(C2=CC(c3c(-c4ccccc4)[nH]c4ccc(C)cc34)c3c(nc4oc(=O)c(C#N)c(N)c4c3N)O2)cc1 (stereo not given)	12 mm	10 mm	10 mm	11 mm	10 mm	0 mm	9 mm	10 mm	12 mm	4 mm	10 mm	0 mm	4 mm	Active	0 mm	11 mm	10 mm	9 mm	0 mm	3 mm	zone of inhibition at 750 µg/mL [21]: 6 mm; zone of inhibition at 1000 µg/mL [22]: 13 mm; zone of inhibition at 500 µg/mL [23]: 3 mm; zone of inhibition at 750 µg/mL [24]: 4 mm; zone of inhibition at 1000 µg/mL [25]: 10 mm
